Data: patent publication US20110224197A1, “PYRIMIDINES AND PYRIDINES USEFUL AS INHIBITORS OF PROTEIN KINASES” (Vertex Pharmaceuticals Incorporated, priority 2008, published 2011)

Legend:
β-catenin = β-catenin in brain, Post Stroke Model II; type: in vivo, rat; details: all doses
Protocol: To track the activity of Compound I-37 in the CNS of rats subjected to MCAO, brains were removed and protein lysate was obtained (as described herein) from both vehicle treated and compound treated animals at the termination of the study. Lysates were analyzed by Western blot and probed for GSK-3α/β pTYR levels.
Protein lysate is obtained from the brains of all vehicle and compound-treated animals and is processed for biomarker analysis of GSK3α/β pTYR and β-catenin by Western blot assay to ensure compound activity on the target.

[1] = tested on: E16 rat hippocampal or cortical neurons; assay: Axonal Branching Assay; type: cell-based
Protocol: Compounds are tested for the ability to enhance axonal branching in E16 rat hippocampal or cortical neurons.
1 mg/ml stock of PDL is diluted into 100 μg/ml in DI water. The glass coverslips are coated for at least 1 hour at 37° C. prior to doing the dissection. PDL is aspirated and the plates are rinsed with PBS and air-dried in hood.
Cortical or hippocampal lobes are combined with 9 mL of Base media (Neurobasal+Pen/Strep) and put on ice. 1 mL of 10× trypsin solution is added and the mixture is swirled gently. The tissue is then digested via incubation in a 37° C. waterbath for 20 minutes. After 20 minutes, 10 μl/ml DNase (100 μL DNase) is added and the mixture is incubated for another 5 minutes.
The cells are spun at 1000 rpm for 1 minute. The enzyme solution is then removed without removing any of the brain fragments sitting on the bottom. […] The cells are counted in a hemacytometer and seeded at 5000-10000 cells/well in a 24 well plate with glass coverslip inserts coated with PDL. […]
Images are captured at 10× and 20× on an upright microscope and axonal branching is determined by quantification of area under threshold fluorescence of neurofilament Alexa 488 per cell. Dendritic branching is determined by quantification of area under threshold fluorescence of MAP2 Alexa 568 per cell. Alternatively, branching can be determined by manual counting of branch points per cell. […]

spinal cord injury model = assay: Spinal Cord Injury Model; details: in vivo
Protocol: Compound I-37 was tested in a spinal cord injury model similar to the one described in Dill, et al, (2008) “Inactivation of Glycogen Synthase Kinase 3 Promotes Axonal Growth and Recover in CNS” The Journal of Neuroscience, 28(36): 8914-8928.

Cc1nc(-c2ccccc2Cl)nc(Nc2n[nH]c3ncc(F)cc23)c1C [Compound I-37, N-(2-(2-chlorophenyl)-5,6-dimethylpyrhnidin-4-yl)-5-fluoro-1H-pyrazolo[3,4-b]pyridin-3-amine]
induction of β-catenin (β-catenin): no induction | axonal and dendritic branching ([1]; 10 nM, 7 days): increased axonal and dentritic branching | axon growth ([1]; concentrations shown to induce β-catenin): axon growth was inhibited | functional recovery (spinal cord injury model): did not appear to improve functional recovery
